Data taken from PMC3333808 (Cell Reports, 2012).

How the values were obtained:
SecYEG [1] = molecular target: T1, SecYEG (Escherichia coli, UniProt P0AG96+P0AG99+P0AGA2); type: binding; conditions: 1.65 μM SecYEG, 3.2 mg/ml E. coli polar lipids, 10 μM peptide; reisolated by centrifugation; SDS-PAGE, silver staining; Figure 1D
T1 sequence (P0AGA2 1-443): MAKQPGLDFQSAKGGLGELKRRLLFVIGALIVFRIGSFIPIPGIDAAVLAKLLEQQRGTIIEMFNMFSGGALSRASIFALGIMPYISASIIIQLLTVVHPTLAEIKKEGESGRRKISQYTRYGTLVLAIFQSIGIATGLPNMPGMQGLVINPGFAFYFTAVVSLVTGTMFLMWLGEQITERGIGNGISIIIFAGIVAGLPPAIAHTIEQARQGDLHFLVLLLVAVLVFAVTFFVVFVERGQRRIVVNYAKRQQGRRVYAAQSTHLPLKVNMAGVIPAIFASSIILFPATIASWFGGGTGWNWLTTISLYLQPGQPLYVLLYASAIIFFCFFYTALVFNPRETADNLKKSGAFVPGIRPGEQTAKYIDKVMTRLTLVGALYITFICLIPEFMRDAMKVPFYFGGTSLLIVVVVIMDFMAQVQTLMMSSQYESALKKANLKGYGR
T1 sequence (P0AG96 1-127 partner): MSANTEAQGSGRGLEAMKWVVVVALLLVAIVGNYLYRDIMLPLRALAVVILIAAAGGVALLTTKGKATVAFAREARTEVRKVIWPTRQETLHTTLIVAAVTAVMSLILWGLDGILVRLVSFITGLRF
T1 sequence (P0AG99 1-110 partner): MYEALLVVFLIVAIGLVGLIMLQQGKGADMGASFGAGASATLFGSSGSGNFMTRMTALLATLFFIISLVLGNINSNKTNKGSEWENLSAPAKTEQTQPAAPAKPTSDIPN

SecYEG [2] = molecular target: T1, SecYEG; assay: Translocation of OmpA into vesicles coreconstituted with SecYEG and peptide; type: biochemical; conditions: vesicles reisolated from excess unbound peptide; western blot; n = 8; Figure 1E
SecYEG [3] = conditions: membranes containing SecYEG; ref Simon and Blobel, 1992; cited from earlier work
SecA = conditions: synthetic LamB signal peptide; ref Gelis et al., 2007; cited from earlier work
SecYEG [4] = molecular target: T1, SecYEG; assay: SecA/ATP-driven translocation of preprotein proOmpA into SecYEG proteoliposomes; type: biochemical; conditions: proteoliposomes containing SecYEG; 0.7 μM proOmpA; 25°C, pH 7.5; proteinase K protection, western blot; Figures 1A and 1B
trypsin = assay: Resistance of peptide in SecYEG 2D crystals to trypsin; type: in vitro ADME; conditions: 1:100 (w/w) trypsin, 20 min, room temperature; Coomassie-stained SDS-PAGE; Figure 1F
SecYEG [5] = conditions: dimer vs monomer; ref Deville et al., 2011; cited from earlier work
SecYEG complex [6] = molecular target: T2, SecYEG complex (E. coli, UniProt P0AGA2 1-443; P0AG96 1-127; P0AG99 1-110); assay: co-sedimentation
T2 sequence (looked up) 1: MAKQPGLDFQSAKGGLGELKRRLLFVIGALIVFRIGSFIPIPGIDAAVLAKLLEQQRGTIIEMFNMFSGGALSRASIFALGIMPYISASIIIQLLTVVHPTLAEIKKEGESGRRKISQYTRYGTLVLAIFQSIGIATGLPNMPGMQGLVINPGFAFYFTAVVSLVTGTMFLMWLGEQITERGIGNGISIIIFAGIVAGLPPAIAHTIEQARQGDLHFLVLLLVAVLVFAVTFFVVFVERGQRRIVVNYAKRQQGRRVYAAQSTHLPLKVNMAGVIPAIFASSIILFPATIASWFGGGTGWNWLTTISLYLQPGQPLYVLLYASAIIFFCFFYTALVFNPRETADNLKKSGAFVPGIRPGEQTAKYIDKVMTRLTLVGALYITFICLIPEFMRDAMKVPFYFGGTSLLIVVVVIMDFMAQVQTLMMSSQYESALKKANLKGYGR
T2 sequence (looked up) 2: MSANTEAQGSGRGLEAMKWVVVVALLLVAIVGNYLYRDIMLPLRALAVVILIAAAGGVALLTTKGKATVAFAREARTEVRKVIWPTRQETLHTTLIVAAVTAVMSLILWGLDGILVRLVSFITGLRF
T2 sequence (looked up) 3: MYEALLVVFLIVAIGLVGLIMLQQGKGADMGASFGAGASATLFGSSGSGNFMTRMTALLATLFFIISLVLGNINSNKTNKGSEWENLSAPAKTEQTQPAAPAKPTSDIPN

SecYEG complex [7] = molecular target: T2, SecYEG complex; assay: cryo-EM structure

MMITLRKLP-(ΔLAVA)-VAAGVMSAQAYA-VDFHGYARSGIGWTG [SSΔ4-β1]
peptide retained following coreconstitution with SecYEG (SecYEG [1]): but not SSΔ4-β1, were retained following coreconstitution with SecYEG

MMITLRKLPLAVAVAAGVMSAQAYA [SS]
peptide retained following coreconstitution with SecYEG (SecYEG [1]): retained following coreconstitution with SecYEG | translocation of OmpA after coreconstitution of SecYEG with peptide (SecYEG [2]): permitted the translocation of OmpA | channel opening (SecYEG [3]): opens channels in membranes containing SecYEG | effect of association with SecA on protein translocation (SecA): competitive inhibition of protein translocation

MMITLRKLPLAVAVAAGVMSAQAYA-VDFHGYARSGIGWTG [SS-β1]
peptide retained following coreconstitution with SecYEG (SecYEG [1]): retained following coreconstitution with SecYEG | translocation of OmpA after coreconstitution of SecYEG with peptide (SecYEG [2]): permitted the translocation of OmpA | inhibition of SecA/ATP-driven translocation of proOmpA (SecYEG [4]): quantitatively inhibits | resistance to proteolysis by trypsin in SecYEG 2D crystals (trypsin): resistance to proteolysis

SecA: ATPase that associates peripherally with the protein-channel complex SecYEG
affinity of SecA for the SecYEG dimer over the monomer (SecYEG [5]): 10 fold

MMITLRKLPLAVAVAAGVMSAQAYA [LamB signal sequence peptide (SS)]
binding result (SecYEG complex [6]): binds

MMITLRKLPLAVAVAAGVMSAQAYAVDFHGYARSGIGWTG [LamB signal sequence plus the first β strand peptide (SS-β1)]
stoichiometry N (SecYEG complex [7]): 1 substrate per SecYEG dimer
